Results taken from US6355799B1, “Substituted benzene compounds, process for their preparation, and herbicidal and defoliant compositions containing them” (ISK Americas Incorporated, priority 1997, dated 2002).

Columns and labels:
Assay type in all cases: in vivo
[1] = system: field corn (Zea mays L., var. Dekalb 535, CORN); assay: Post-emerge test, crop safety; details: post-emerge, 14 days after application, rating scale 0-100
Outline: (§1)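 Applied at 15–1000 g ai/ha from acetone in 187 l/ha spray volume. Post-emergence applications included 0.25% v/v non-ionic surfactant and reached plants sown 8–21 days before. Pre-emergence applications were incorporated by surface watering. Efficacy or crop damage was rated on a 0–100 scale after 14 days.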

[2] = system: upland rice (Oryza sp., var. Tebonnet, RICE); assay: Post-emerge test, crop safety; details: post-emerge, 14 days after application, rating scale 0-100
Outline: as §1

[3] = system: common ragweed (Ambrosia artemisizfolia L., AMBEL); assay: Pre-emerge test, greenhouse herbicide activity screening; details: rated 14 days after application, 0 = no damage, 100 = complete death
Outline: as §1

[4] = system: velvetleaf (Abutilon theophrasti, ABUTH); assay: as above; details: rated 14 days after application, 0 = no damage, 100 = complete death
Outline: as §1

[5] = system: large crabgrass (Digitaria sanguinalis, DIGSA); assay: as above; details: rated 14 days after application, 0 = no damage, 100 = complete death
Outline: as §1

[6] = system: green foxtail (Setaria viridis, SETVI); assay: as above; details: rated 14 days after application, 0 = no damage, 100 = complete death
Outline: as §1

[7] = system: lambsquarters (Chenopodium album, CHEAL); assay: as above; details: rated 14 days after application, 0 = no damage, 100 = complete death
Outline: as §1

[8] = system: johnsongrass (Sorghum halepense, SORHA); assay: as above; details: rated 14 days after application, 0 = no damage, 100 = complete death
Outline: as §1

[9] = system: sicklepod (Cassia obtusifolia, CASOB); assay: as above; details: rated 14 days after application, 0 = no damage, 100 = complete death
Outline: as §1

[10] = system: ivyleaf morningglory (Ipomoea hederacea, IPOHE); assay: as above; details: rated 14 days after application, 0 = no damage, 100 = complete death
Outline: as §1

[11] = system: barnyardgrass (Echinochloa crus-galli, ECHCG); assay: as above; details: rated 14 days after application, 0 = no damage, 100 = complete death
Outline: as §1

[12] = system: common ragweed (Ambrosia artemisizfolia L., AMBEL); assay: Post-emerge test, greenhouse herbicide activity screening; details: post-emerge, 14 days after application, rating scale 0-100
Outline: (§2)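 Plants grown in 10 cm pots of sandy loam mix received acetone-dissolved compounds through a moving flat-fan nozzle. Doses ranged from 15 to 1000 g ai/ha. Pre-emerge pots were seeded one day earlier, post-emerge pots 8–21 days earlier. Fourteen days on, each pot was graded 0–100 for damage.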

[13] = system: velvetleaf (Abutilon theophrasti, ABUTH); assay: as above; details: post-emerge, 14 days after application, rating scale 0-100
Outline: as §2

[14] = system: large crabgrass (Digitaria sanguinalis, DIGSA); assay: as above; details: post-emerge, 14 days after application, rating scale 0-100
Outline: as §2

[15] = system: redroot pigweed (Amaranthus retroflexus, AMARE); assay: as above; details: post-emerge, 14 days after application, rating scale 0-100
Outline: as §2

[16] = system: lambsquarters (Chenopodium album, CHEAL); assay: as above; details: post-emerge, 14 days after application, rating scale 0-100
Outline: as §2

[17] = system: johnsongrass (Sorghum halepense, SORHA); assay: as above; details: post-emerge, 14 days after application, rating scale 0-100
Outline: as §2

[18] = system: sicklepod (Cassia obtusifolia, CASOB); assay: as above; details: post-emerge, 14 days after application, rating scale 0-100
Outline: as §2

[19] = system: ivyleaf morningglory (Ipomoea hederacea, IPOHE); assay: as above; details: post-emerge, 14 days after application, rating scale 0-100
Outline: as §2

[20] = system: barnyardgrass (Echinochloa crus-galli, ECHCG); assay: as above; details: post-emerge, 14 days after application, rating scale 0-100
Outline: as §2

[21] = system: field corn (Zea mays L., var. Dekalb 535, CORN); assay: Pre-emerge test, crop safety; details: rated 14 days after application, 0 = no damage, 100 = complete death
Outline: (§3)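 Compounds in acetone were track-sprayed at 187 l/ha, 15–1000 g ai/ha, onto sandy loam pots. Pre-emerge seeds were sown one day before spraying, with surface watering afterwards. Post-emerge plants were at the 2–3 leaf stage and sprayed with 0.25% v/v non-ionic surfactant. Injury was rated 0–100 at 14 days.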

[22] = system: upland rice (Oryza sp., var. Tebonnet, RICE); assay: Pre-emerge test, crop safety; details: rated 14 days after application, 0 = no damage, 100 = complete death
Outline: as §3

[23] = system: redroot pigweed (Amaranthus retroflexus, AMARE); assay: Pre-emerge test, greenhouse herbicide activity screening; details: rated 14 days after application, 0 = no damage, 100 = complete death
Outline: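 Herbicidal damage is scored 0 (none) to 100 (complete plant death) two weeks after a simulated field spray. Rates span 15–1000 g ai/ha, delivered in acetone at 187 l/ha. For post-emergence treatments, plants have 2–3 leaves and the spray carries 0.25% v/v non-ionic surfactant.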

COc1c(Cl)cc(F)c(-n2c(=O)cc(C(F)(F)F)n(C)c2=O)c1NC(=O)c1cccnc1 [2-98]
phytotoxicity rating CORN ([1]; 63 g ai/ha): 20
phytotoxicity rating CORN ([1]; 250 g ai/ha): 90
phytotoxicity rating RICE ([2]; 63 g ai/ha): 40
phytotoxicity rating RICE ([2]; 250 g ai/ha): 90
Pre-emerge Herbicidal Activity, phytotoxicity rating (0-100), AMBEL ([3]; 63 g ai/ha): 100
Pre-emerge Herbicidal Activity, phytotoxicity rating (0-100), AMBEL ([3]; 250 g ai/ha): 100
Pre-emerge Herbicidal Activity, phytotoxicity rating (0-100), ABUTH ([4]; 63 g ai/ha): 100
Pre-emerge Herbicidal Activity, phytotoxicity rating (0-100), ABUTH ([4]; 250 g ai/ha): 100
Pre-emerge Herbicidal Activity, phytotoxicity rating (0-100), DIGSA ([5]; 63 g ai/ha): 40
Pre-emerge Herbicidal Activity, phytotoxicity rating (0-100), DIGSA ([5]; 250 g ai/ha): 95
Pre-emerge Herbicidal Activity, phytotoxicity rating (0-100), SETVI ([6]; 63 g ai/ha): 80
Pre-emerge Herbicidal Activity, phytotoxicity rating (0-100), SETVI ([6]; 250 g ai/ha): 100
Pre-emerge Herbicidal Activity, phytotoxicity rating (0-100), CHEAL ([7]; 63 g ai/ha): 100
Pre-emerge Herbicidal Activity, phytotoxicity rating (0-100), CHEAL ([7]; 250 g ai/ha): 100
Pre-emerge Herbicidal Activity, phytotoxicity rating (0-100), SORHA ([8]; 63 g ai/ha): 30
Pre-emerge Herbicidal Activity, phytotoxicity rating (0-100), SORHA ([8]; 250 g ai/ha): 95
Pre-emerge Herbicidal Activity, phytotoxicity rating (0-100), CASOB ([9]; 63 g ai/ha): 100
Pre-emerge Herbicidal Activity, phytotoxicity rating (0-100), CASOB ([9]; 250 g ai/ha): 100
Pre-emerge Herbicidal Activity, phytotoxicity rating (0-100), IPOHE ([10]; 63 g ai/ha): 100
Pre-emerge Herbicidal Activity, phytotoxicity rating (0-100), IPOHE ([10]; 250 g ai/ha): 100
Pre-emerge Herbicidal Activity, phytotoxicity rating (0-100), ECHCG ([11]; 63 g ai/ha): 30
Pre-emerge Herbicidal Activity, phytotoxicity rating (0-100), ECHCG ([11]; 250 g ai/ha): 100
phytotoxicity rating AMBEL ([12]; 63 g ai/ha): 80
phytotoxicity rating AMBEL ([12]; 250 g ai/ha): 100
phytotoxicity rating ABUTH ([13]; 63 g ai/ha): 100
phytotoxicity rating ABUTH ([13]; 250 g ai/ha): 100
phytotoxicity rating DIGSA ([14]; 63 g ai/ha): 0
phytotoxicity rating DIGSA ([14]; 250 g ai/ha): 50
phytotoxicity rating AMARE ([15]; 63 g ai/ha): 75
phytotoxicity rating AMARE ([15]; 250 g ai/ha): 100
phytotoxicity rating CHEAL ([16]; 63 g ai/ha): 70
phytotoxicity rating CHEAL ([16]; 250 g ai/ha): 90
phytotoxicity rating SORHA ([17]; 63 g ai/ha): 0
phytotoxicity rating SORHA ([17]; 250 g ai/ha): 90
phytotoxicity rating CASOB ([18]; 63 g ai/ha): 100
phytotoxicity rating CASOB ([18]; 250 g ai/ha): 100
phytotoxicity rating IPOHE ([19]; 63 g ai/ha): 100
phytotoxicity rating IPOHE ([19]; 250 g ai/ha): 100
phytotoxicity rating ECHCG ([20]; 63 g ai/ha): 0
phytotoxicity rating ECHCG ([20]; 250 g ai/ha): 20
Pre-emerge phytotoxicity rating (0-100), crop damage, CORN ([21]; 63 g ai/ha): 70
Pre-emerge phytotoxicity rating (0-100), crop damage, CORN ([21]; 250 g ai/ha): 90
Pre-emerge phytotoxicity rating (0-100), crop damage, RICE ([22]; 63 g ai/ha): 60
Pre-emerge phytotoxicity rating (0-100), crop damage, RICE ([22]; 250 g ai/ha): 90
Pre-emerge Herbicidal Activity, phytotoxicity rating (0-100), AMARE ([23]; 63 g ai/ha): 100
Pre-emerge Herbicidal Activity, phytotoxicity rating (0-100), AMARE ([23]; 250 g ai/ha): 100
